Each structure is given as a SMILES string.

The source of these data is US20260130933A1, “PHARMACEUTICAL COMPOSITION FOR PREVENTION OR TREATMENT OF NEPHROPATHY AND/OR DIABETES MELLITUS, COMPRISING ENAVOGLIFLOZIN” (DAEWOONG PHARMACEUTICAL CO., LTD., priority 2022, published 2026).

The nature of data set [1]: Example 7: SD rats treated with streptozotocin (diabetic nephropathy model), oral once a day for 12 weeks: urinary albumin, GS score, TA score. In kind it is in vivo. The protocol:
Accordingly, 60 mg/kg of streptozotocin was administered intravenously to the SD rats and used as an animal model of diabetic nephropathy.

Data set [2] is described as follows: Phase 2 clinical trial, blood glucose lowering vs placebo. In kind it is in vivo, human. To be noted: 0.1 mg, 0.3 mg and 0.5 mg groups.
Data set [3] is described as follows: Dissolution test method 2 of the Korean Pharmacopoeia (paddle method). In kind it is physicochemical. Particulars: average particle size greater than 15 μm. The protocol: The dissolution rate of the active ingredient in the pharmaceutical composition affects the maximum blood concentration (Cmax) and the blood concentration-area under the blood concentration-time curve (AUC) when administering the drug, that is to say, in order to achieve appropriate Cmax and AUC, it is important to adjust the dissolution rate of the pharmaceutical composition. […] The above dissolution rate was measured under the condition of the dissolved solution 1.2 in accordance of the dissolution test method 2 of the Korean Pharmacopoeia (paddle method). For specific conditions, refer to the following experimental examples.

Turning to `OC[C@H]1O[C@@H](c2cc(Cc3ccc(C4CC4)cc3)c(Cl)c3c2CCO3)[C@H](O)[C@@H](O)[C@@H]1O` [Enavogliflozin, (2S,3R,4R,5S,6R)-2-(7-chloro-6 (4-cyclopropylbenzyl)-2,3-dihydrobenzofuran-4-yl)-6-(hydroxymethyl)tetrahydro-2H-pyran-3,4,5-triol], the “Reduction of proteinuria compared with other SGLT2 inhibitors” value in data set [1] (same dose groups (1 mg/kg)) is “most excellent effect in reducing proteinuria”. Also, the “TA score (tubular atrophy)” value in data set [1] (week 12) is on record as “significant dose-dependent decrease in tubular atrophy”. Moreover, the “GS score (glomerulosclerosis)” value in data set [1] (week 12, all enavogliflozin-administered groups) is on record as “trend toward a decrease in the GS score”. For the same molecule, the “Urinary albumin concentration (proteinuria)” value in data set [1] (weeks 4, 8 and 12) was “dose-dependent decrease in proteinuria”. The “Blood glucose-lowering effect compared to a placebo” value in data set [2] is listed as “statistically significant blood glucose-lowering effect”. Further, in data set [3], the 5-minute dissolution rate entry is “less than 40%” and the 30-minute dissolution rate entry is “less than 80%”.
